Assay results: paper PMC5377825, “Catalytic Determinants of Alkene Production by the Cytochrome P450 Peroxygenase OleTJE” (The Journal of Biological Chemistry, 2017)
Positions count from the first letter of the chain named. Where two headings read alike, the source gives them in different places.

Legend:
Test in all cases: UV-visible heme spectral titration
Type in all cases: binding
OleTJE (CYP152L1) [1] = molecular target: T1, OleTJE (CYP152L1) (Jeotgalicoccus sp. ATCC 8456, UniProt E9NSU2)
T1 construct: gene JEM45_03820; full length, codon-optimized gene in modified pET15b, N-terminal polyhistidine tag with TEV site; tag kept for spectroscopy, cleaved for crystallography; expressed in E. coli C41 (DE3)
T1 sequence (E9NSU2 1-422): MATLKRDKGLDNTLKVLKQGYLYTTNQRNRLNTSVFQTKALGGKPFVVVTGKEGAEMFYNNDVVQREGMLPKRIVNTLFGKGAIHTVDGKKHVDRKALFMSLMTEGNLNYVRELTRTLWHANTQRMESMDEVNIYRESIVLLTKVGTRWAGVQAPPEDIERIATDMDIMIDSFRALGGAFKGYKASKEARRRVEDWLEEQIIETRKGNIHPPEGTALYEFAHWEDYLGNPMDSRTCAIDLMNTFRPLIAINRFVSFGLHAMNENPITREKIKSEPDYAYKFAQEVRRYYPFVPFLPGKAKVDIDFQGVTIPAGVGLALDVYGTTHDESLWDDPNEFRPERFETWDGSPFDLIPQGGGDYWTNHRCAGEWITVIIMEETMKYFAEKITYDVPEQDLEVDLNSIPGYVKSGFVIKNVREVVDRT
Description: (§1) UV-visible heme spectral titration on OleTJE (CYP152L1)

OleTJE (CYP152L1) [2] = molecular target: T2, OleTJE (CYP152L1) (Jeotgalicoccus sp. ATCC 8456, UniProt E9NSU2, R245E); conditions: read-out: Fatty acid Kd (HS) / C10:0
T2 construct: gene JEM45_03820; full length, codon-optimized gene in modified pET15b, N-terminal polyhistidine tag with TEV site; tag kept for spectroscopy, cleaved for crystallography; expressed in E. coli C41 (DE3)
T2 sequence (E9NSU2 1-422 R245E): T1 sequence (E9NSU2 1-422) with R245E
Description: as §1

OleTJE (CYP152L1) [3] = molecular target: T3, OleTJE (CYP152L1) (Jeotgalicoccus sp. ATCC 8456, UniProt E9NSU2, F79A)
T3 construct: gene JEM45_03820; full length, codon-optimized gene in modified pET15b, N-terminal polyhistidine tag with TEV site; tag kept for spectroscopy, cleaved for crystallography; expressed in E. coli C41 (DE3)
T3 sequence (E9NSU2 1-422 F79A): T1 sequence (E9NSU2 1-422) with F79A
Description: as §1

OleTJE (CYP152L1) [4] = molecular target: T4, OleTJE (CYP152L1) (Jeotgalicoccus sp. ATCC 8456, UniProt E9NSU2, H85Q)
T4 construct: gene JEM45_03820; full length, codon-optimized gene in modified pET15b, N-terminal polyhistidine tag with TEV site; tag kept for spectroscopy, cleaved for crystallography; expressed in E. coli C41 (DE3)
T4 sequence (E9NSU2 1-422 H85Q): T1 sequence (E9NSU2 1-422) with H85Q
Description: as §1

OleTJE (CYP152L1) [5] = molecular target: T5, OleTJE (CYP152L1) (Jeotgalicoccus sp. ATCC 8456, UniProt E9NSU2, F79W)
T5 construct: gene JEM45_03820; full length, codon-optimized gene in modified pET15b, N-terminal polyhistidine tag with TEV site; tag kept for spectroscopy, cleaved for crystallography; expressed in E. coli C41 (DE3)
T5 sequence (E9NSU2 1-422 F79W): T1 sequence (E9NSU2 1-422) with F79W
Description: as §1

OleTJE (CYP152L1) [6] = molecular target: T6, OleTJE (CYP152L1) (Jeotgalicoccus sp. ATCC 8456, UniProt E9NSU2, F79Y)
T6 construct: gene JEM45_03820; full length, codon-optimized gene in modified pET15b, N-terminal polyhistidine tag with TEV site; tag kept for spectroscopy, cleaved for crystallography; expressed in E. coli C41 (DE3)
T6 sequence (E9NSU2 1-422 F79Y): T1 sequence (E9NSU2 1-422) with F79Y
Description: as §1

[7] = read-out: Fatty acid Kd (HS) / C10:0
[8] = read-out: Fatty acid Kd (HS) / C12:0
[9] = read-out: Fatty acid Kd (HS) / C14:0
[10] = read-out: Fatty acid Kd (HS) / C16:0
[11] = read-out: Fatty acid Kd (HS) / C18:0
[12] = read-out: Fatty acid Kd (HS) / C20:0

CCCCCCCCCC(=O)O [C10:0, decanoic acid]
Kd (OleTJE (CYP152L1) [1]; [7]): 47.1 ± 2.1 µM | Kd (OleTJE (CYP152L1) [2]): 1260 ± 160 µM | Kd (OleTJE (CYP152L1) [3]; [7]): 465 ± 11 µM

CCCCCCCCCCCC(=O)O [C12:0, dodecanoic acid]
Kd (OleTJE (CYP152L1) [4]; [8]): 37.3 ± 2.5 µM | Kd (OleTJE (CYP152L1) [1]; [8]): 11.7 ± 0.43 µM | Kd (OleTJE (CYP152L1) [5]; [8]): 106 ± 9 µM | Kd (OleTJE (CYP152L1) [3]; [8]): 55 ± 4.8 µM | Kd (OleTJE (CYP152L1) [6]; [8]): 196 ± 5 µM

CCCCCCCCCCCCCC(=O)O [C14:0, tetradecanoic acid]
Kd (OleTJE (CYP152L1) [4]; [9]): 10.5 ± 0.1 µM | Kd (OleTJE (CYP152L1) [1]; [9]): 1.45 ± 0.05 µM | Kd (OleTJE (CYP152L1) [5]; [9]): 24.1 ± 0.9 µM | Kd (OleTJE (CYP152L1) [3]; [9]): 39.1 ± 2.5 µM | Kd (OleTJE (CYP152L1) [6]; [9]): 30.7 ± 1 µM

CCCCCCCCCCCCCCCC(=O)O [C16:0, hexadecanoic acid]
Kd (OleTJE (CYP152L1) [4]; [10]): 5.36 ± 0.18 µM | Kd (OleTJE (CYP152L1) [1]; [10]): 1.73 ± 0.08 µM | Kd (OleTJE (CYP152L1) [5]; [10]): 12.7 ± 0.7 µM | Kd (OleTJE (CYP152L1) [3]; [10]): 22.6 ± 1.9 µM

CCCCCCCCCCCCCCCCCC(=O)O [C18:0, octadecanoic acid]
Kd (OleTJE (CYP152L1) [4]; [11]): 5.92 ± 0.08 µM | Kd (OleTJE (CYP152L1) [1]; [11]): 4.09 ± 0.16 µM | Kd (OleTJE (CYP152L1) [5]; [11]): 4.52 ± 0.2 µM | Kd (OleTJE (CYP152L1) [3]; [11]): 8.7 ± 0.5 µM

CCCCCCCCCCCCCCCCCCCC(=O)O [C20:0, eicosanoic acid]
Kd (OleTJE (CYP152L1) [4]; [12]): 5.27 ± 0.05 µM | Kd (OleTJE (CYP152L1) [1]; [12]): 4.43 ± 0.19 µM | Kd (OleTJE (CYP152L1) [5]; [12]): 4.41 ± 0.27 µM | Kd (OleTJE (CYP152L1) [3]; [12]): 3.4 ± 0.3 µM | Kd (OleTJE (CYP152L1) [6]; [12]): 4.25 ± 0.21 µM
